Experiments:
KRas^WT = target: T1, KRas^WT (Homo sapiens, UniProt P01116); test: KRas binding assay (TR-FRET displacement of Cy5 labelled tracer)
T1 construct: […]; biotin (biotinylated); purchased Accelegan Inc

KRas^Q61H = KRas^Q61H (Homo sapiens, UniProt P01116, Q61H); test: biochemical
KRas^G12C = KRas^G12C (Homo sapiens, UniProt P01116, G12C); test: biochemical
KRas^G12D = target: T2, KRas^G12D (Homo sapiens, UniProt P01116, G12D); test: KRas binding assay (TR-FRET displacement of Cy5 labelled tracer)
T2 construct: […]; biotin (biotinylated); purchased Accelegan Inc
T2 sequence (P01116 1-169 isoform P01116-2 G12D): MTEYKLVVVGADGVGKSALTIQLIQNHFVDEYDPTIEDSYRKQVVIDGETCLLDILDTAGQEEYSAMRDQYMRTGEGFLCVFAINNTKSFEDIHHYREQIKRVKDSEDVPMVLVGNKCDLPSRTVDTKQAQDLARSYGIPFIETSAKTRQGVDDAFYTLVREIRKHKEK

KRas^G12S = target: T3, KRas^G12S (Homo sapiens, UniProt P01116, G12S); test: as above
T3 construct: […]; biotin (biotinylated); purchased Accelegan Inc
T3 sequence (P01116 1-169 isoform P01116-2 G12S): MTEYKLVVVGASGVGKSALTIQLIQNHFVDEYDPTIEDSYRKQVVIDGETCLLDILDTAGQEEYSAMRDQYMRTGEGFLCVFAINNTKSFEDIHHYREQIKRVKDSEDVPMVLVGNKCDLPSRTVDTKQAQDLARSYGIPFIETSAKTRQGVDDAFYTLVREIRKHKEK

KRas^G12V = target: T4, KRas^G12V (Homo sapiens, UniProt P01116, G12V); test: as above
T4 construct: […]; biotin (biotinylated); purchased Accelegan Inc
T4 sequence (P01116 1-169 isoform P01116-2 G12V): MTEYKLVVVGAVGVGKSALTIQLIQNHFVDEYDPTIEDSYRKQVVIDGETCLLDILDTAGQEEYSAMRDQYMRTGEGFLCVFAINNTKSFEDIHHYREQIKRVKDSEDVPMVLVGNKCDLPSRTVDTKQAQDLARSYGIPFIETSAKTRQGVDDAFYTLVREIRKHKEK

KRas^G12R = target: T5, KRas^G12R (Homo sapiens, UniProt P01116, G12R); test: as above
T5 construct: […]; biotin (biotinylated); purchased Accelegan Inc
T5 sequence (P01116 1-169 isoform P01116-2 G12R): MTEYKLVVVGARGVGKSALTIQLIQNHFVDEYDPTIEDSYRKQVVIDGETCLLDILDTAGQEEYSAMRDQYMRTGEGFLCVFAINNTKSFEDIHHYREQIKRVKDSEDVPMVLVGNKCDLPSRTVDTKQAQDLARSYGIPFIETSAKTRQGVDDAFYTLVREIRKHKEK

KRas^G13D = KRas^G13D (Homo sapiens, UniProt P01116, G13D); test: biochemical
Chain of KRas^G13D (P01116 1-169 isoform P01116-2 G13D): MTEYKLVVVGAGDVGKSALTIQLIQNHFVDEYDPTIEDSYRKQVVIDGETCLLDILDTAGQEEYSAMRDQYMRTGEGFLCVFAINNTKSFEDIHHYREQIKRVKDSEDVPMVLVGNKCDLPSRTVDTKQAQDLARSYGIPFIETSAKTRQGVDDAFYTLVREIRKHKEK

KRas^G12A = target: T6, KRas^G12A (Homo sapiens, UniProt P01116, G12A); test: KRas binding assay (TR-FRET displacement of Cy5 labelled tracer)
T6 construct: […]; biotin (biotinylated); purchased Accelegan Inc
T6 sequence (P01116 1-169 isoform P01116-2 G12A): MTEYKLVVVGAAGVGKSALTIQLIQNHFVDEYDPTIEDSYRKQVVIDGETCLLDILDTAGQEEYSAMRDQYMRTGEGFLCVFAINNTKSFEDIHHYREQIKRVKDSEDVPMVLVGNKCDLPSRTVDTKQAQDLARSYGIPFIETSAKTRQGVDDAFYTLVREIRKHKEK

T1 sequence (P01116 1-169 isoform P01116-2): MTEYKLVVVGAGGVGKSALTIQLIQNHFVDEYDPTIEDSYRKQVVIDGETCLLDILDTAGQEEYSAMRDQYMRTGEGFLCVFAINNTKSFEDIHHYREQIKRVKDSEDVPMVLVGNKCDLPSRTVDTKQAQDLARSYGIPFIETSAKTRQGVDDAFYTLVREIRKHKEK
Chain of KRas^G12C (P01116 1-169 isoform P01116-2 G12C): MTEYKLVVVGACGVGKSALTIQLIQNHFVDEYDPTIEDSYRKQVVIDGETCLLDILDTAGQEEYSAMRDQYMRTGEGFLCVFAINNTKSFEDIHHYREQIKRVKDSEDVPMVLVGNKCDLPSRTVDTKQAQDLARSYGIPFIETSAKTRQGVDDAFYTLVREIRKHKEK
Chain of KRas^Q61H (P01116 1-169 isoform P01116-2 Q61H): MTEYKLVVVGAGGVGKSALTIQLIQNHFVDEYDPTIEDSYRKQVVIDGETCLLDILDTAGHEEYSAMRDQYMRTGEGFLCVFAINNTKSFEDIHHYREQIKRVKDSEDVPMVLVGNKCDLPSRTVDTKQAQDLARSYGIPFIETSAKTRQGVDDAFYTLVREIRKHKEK

| IC50 (KRas^WT) | IC50 (KRas^Q61H) | IC50 (KRas^G12C) | IC50 (KRas^G12D) | IC50 (KRas^G12S) | IC50 (KRas^G12V) | IC50 (KRas^G12R) | IC50 (KRas^G13D) | IC50 (KRas^G12A) | SMILES |
| --- | --- | --- | --- | --- | --- | --- | --- | --- | --- |
| 860 nM | 757 nM | 525 nM | 2120 nM | 883 nM | 1290 nM | 244 nM | 699 nM | 793 nM | CCc1cccc2cccc(N3CCc4c(nc(OCC56CCCN5CCC6)nc4N4CCCC(n5ccc(C)n5)C4)C3)c12 (stereo not drawn) [Example 94, 7-(8-ethylnaphthalen-1-yl)-4-(3-(3-methyl-1H-pyrazol-1-yl)piperidin-1-yl)-2-((tetrahydro-1H-pyrrolizin-7a(5H)-yl)methoxy)-5,6,7,8-tetrahydropyrido[3,4-d]pyrimidine] |
| 7510 nM | 10600 nM | 4980 nM | 1260 nM | 5680 nM | 6280 nM | 11100 nM | 10100 nM | 8490 nM | CCc1cccc2cccc(N3CCc4c(nc(OCC56CCCN5CCC6)nc4N4CCn5ncc(S(C)(=O)=O)c5C4)C3)c12 [Example 144, 7-(8-ethylnaphthalen-1-yl)-4-(3-(methylsulfonyl)-6,7-dihydropyrazolo[1,5-a]pyrazin-5(4H)-yl)-2-((tetrahydro-1H-pyrrolizin-7a(5H)-yl)methoxy)-5,6,7,8-tetrahydropyrido[3,4-d]pyrimidine] |
| 104 nM | 132 nM | 88 nM | 310 nM | 100 nM | 118 nM | 71 nM | 159 nM | 86 nM | CCc1cccc2cccc(N3CCc4c(nc(OCC56CCCN5CCC6)nc4N4CCOCC(O)C4)C3)c12 (stereo not drawn) [Example 6, 4-(7-(8-ethylnaphthalen-1-yl)-2-((tetrahydro-1H-pyrrolizin-7a(5H)-yl)methoxy)-5,6,7,8-tetrahydropyrido[3,4-d]pyrimidin-4-yl)-1,4-oxazepan-6-ol] |
| 2100 nM | 1640 nM | 1110 nM | 3300 nM | 1490 nM | 1790 nM | 462 nM | 1670 nM | 1160 nM | CCc1cccc2cccc(N3CCc4c(nc(OCC56CCCN5CCC6)nc4N4CCCC(c5c[nH]cn5)C4)C3)c12 (stereo not drawn) [Example 116, 4-(3-(1H-imidazol-4-yl)piperidin-1-yl)-7-(8-ethylnaphthalen-1-yl)-2-((tetrahydro-1H-pyrrolizin-7a(5H)-yl)methoxy)-5,6,7,8-tetrahydropyrido[3,4-d]pyrimidine] |
| 7520 nM | 7250 nM | 1250 nM | 10500 nM | 1870 nM | 1380 nM | 1720 nM | 13100 nM | 2320 nM | CCc1cccc2cccc(N3CCc4c(nc(OCC56CCCN5CCC6)nc4NCc4cccnc4-n4cncn4)C3)c12 [Example 142, N-((2-(1H-1,2,4-triazol-1-yl)pyridin-3-yl)methyl)-7-(8-ethylnaphthalen-1-yl)-2-((tetrahydro-1H-pyrrolizin-7a(5H)-yl)methoxy)-5,6,7,8-tetrahydropyrido[3,4-d]pyrimidin-4-amine] |
| 73 nM | 112 nM | 80 nM | 30 nM | 22 nM | 41 nM | 81 nM | 67 nM | 59 nM | O=C1NC(=O)C2CN(c3nc(OCC45CCCN4CCC5)nc4c3CCN(c3cccc5cccc(Br)c35)C4)CC12 (stereo not drawn) [Example 78, 5-(7-(8-bromonaphthalen-1-yl)-2-((hexahydro-1H-pyrrolizin-7a-yl)methoxy)-5,6,7,8-tetrahydropyrido[3,4-d]pyrimidin-4-yl)tetrahydropyrrolo[3,4-c]pyrrole-1,3(2H,3aH)-dione] |
| ≤ 2 nM | ≤ 2 nM | ≤ 2 nM | 3 nM | ≤ 2 nM | ≤ 2 nM | ≤ 2 nM | ≤ 2 nM | ≤ 2 nM | CCc1cccc2cccc(N3CCc4c(nc(OCC56CCCN5CCC6)nc4N4CCCC5(C4)NC(=O)NC5=O)C3)c12 (stereo not drawn) [Example 12, 7-(7-(8-ethylnaphthalen-1-yl)-2-((tetrahydro-1H-pyrrolizin-7a(5H)-yl)methoxy)-5,6,7,8-tetrahydropyrido[3,4-d]pyrimidin-4-yl)-1,3,7-triazaspiro[4.5]decane-2,4-dione] |
| 109 nM | 151 nM | 116 nM | 53 nM | 35 nM | 67 nM | 135 nM | 111 nM | 128 nM | O=C1NC(=O)C2CN(c3nc(OCC45CCCN4CCC5)nc4c3CCN(c3cccc5cccc(Cl)c35)C4)CC12 (stereo not drawn) [Example 79, 5-(7-(8-chloronaphthalen-1-yl)-2-((hexahydro-1H-pyrrolizin-7a-yl)methoxy)-5,6,7,8-tetrahydropyrido[3,4-d]pyrimidin-4-yl)tetrahydropyrrolo[3,4-c]pyrrole-1,3(2H,3aH)-dione] |
| 519 nM | 898 nM | 456 nM | 1770 nM | 612 nM | 690 nM | 387 nM | 893 nM | 735 nM | CCc1cccc2cccc(N3CCc4c(nc(OCC56CCCN5CCC6)nc4N4CCC(O)C(CO)C4)C3)c12 (stereo not drawn) [Example 109, 1-(7-(8-ethylnaphthalen-1-yl)-2-((tetrahydro-1H-pyrrolizin-7a(5H)-yl)methoxy)-5,6,7,8-tetrahydropyrido[3,4-d]pyrimidin-4-yl)-3-(hydroxymethyl)piperidin-4-ol] |
| 140 nM | 213 nM | 274 nM | 1030 nM | 263 nM | 491 nM | 399 nM | 186 nM | 223 nM | CCc1cccc2cccc(N3CCc4c(nc(OCC56CCCN5CCC6)nc4N4CCCC(N5CCCS5(=O)=O)C4)C3)c12 (stereo not drawn) [Example 85, 2-(1-(7-(8-ethylnaphthalen-1-yl)-2-((tetrahydro-1H-pyrrolizin-7a(5H)-yl)methoxy)-5,6,7,8-tetrahydropyrido[3,4-d]pyrimidin-4-yl)piperidin-3-yl)isothiazolidine 1,1-dioxide] |
| 1340 nM | 1440 nM | 871 nM | 945 nM | 1020 nM | 936 nM | 781 nM | 1500 nM | 1020 nM | CCc1cccc2cccc(N3CCc4c(nc(OCC56CCCN5CCC6)nc4N4CC(C)CC(CO)C4)C3)c12 (stereo not drawn) [Example 133, (1-(7-(8-ethylnaphthalen-1-yl)-2-((tetrahydro-1H-pyrrolizin-7a(5H)-yl)methoxy)-5,6,7,8-tetrahydropyrido[3,4-d]pyrimidin-4-yl)-5-methylpiperidin-3-yl)methanol] |
| 1540 nM | 1750 nM | 1150 nM | 2040 nM | 1400 nM | 739 nM | 1360 nM | 1830 nM | 2070 nM | CCc1cccc2cccc(N3CCc4c(nc(OCC56CCCN5CCC6)nc4N(C)Cc4c[nH]nn4)C3)c12 [Example 127, N-((1H-1,2,3-triazol-4-yl)methyl)-7-(8-ethylnaphthalen-1-yl)-N-methyl-2-((tetrahydro-1H-pyrrolizin-7a(5H)-yl)methoxy)-5,6,7,8-tetrahydropyrido[3,4-d]pyrimidin-4-amine] |
| 41 nM | 57 nM | 82 nM | 290 nM | 70 nM | 73 nM | 99 nM | 40 nM | 51 nM | CCc1cccc2cccc(N3CCc4c(nc(OCC56CCCN5CCC6)nc4N4CCC(O)C(CO)CC4)C3)c12 (stereo not drawn) [Example 13, 1-(7-(8-ethylnaphthalen-1-yl)-2-((tetrahydro-1H-pyrrolizin-7a(5H)-yl)methoxy)-5,6,7,8-tetrahydropyrido[3,4-d]pyrimidin-4-yl)-5-(hydroxymethyl)azepan-4-ol] |
| 54 nM | 76 nM | 115 nM | 192 nM | 154 nM | 165 nM | 168 nM | 66 nM | 128 nM | CCc1cccc2cccc(N3CCc4c(nc(OCC56CCCN5CCC6)nc4N4CCOCC(n5cccn5)C4)C3)c12 (stereo not drawn) [Example 9, 4-(7-(8-ethylnaphthalen-1-yl)-2-((tetrahydro-1H-pyrrolizin-7a(5H)-yl)methoxy)-5,6,7,8-tetrahydropyrido[3,4-d]pyrimidin-4-yl)-6-(1H-pyrazol-1-yl)-1,4-oxazepane] |
| 765 nM | 963 nM | 382 nM | 1040 nM | 459 nM | 435 nM | 229 nM | 919 nM | 292 nM | CCc1cccc2cccc(N3CCc4c(nc(OCC56CCCN5CCC6)nc4N4CCCC(NC(=O)N(C)C)C4)C3)c12 (stereo not drawn) [Example 91, 3-(1-(7-(8-ethylnaphthalen-1-yl)-2-((tetrahydro-1H-pyrrolizin-7a(5H)-yl)methoxy)-5,6,7,8-tetrahydropyrido[3,4-d]pyrimidin-4-yl)piperidin-3-yl)-1,1-dimethylurea] |

From patent publication US12421253B2 (Mirati Therapeutics, Inc., priority 2020, dated 2025)
